From patent US7435815B2, “Sulfonylamino-acetic acid derivatives” (Actelion Pharmaceuticals Ltd., priority 2002, dated 2008)

Legend:
human orexin-1 receptor = molecular target: T1, human orexin-1 receptor (Homo sapiens, UniProt O43613); test: Intracellular calcium measurements (FLIPR), orexin receptor antagonistic activity, OX1; type: cell-based; settings: CHO cells expressing the human orexin-1 receptor, agonist 10 nM human orexin-A
T1 construct: expressed in transfected cells; host or cells: CHO cells (G418 selection)
T1 sequence (O43613 1-425): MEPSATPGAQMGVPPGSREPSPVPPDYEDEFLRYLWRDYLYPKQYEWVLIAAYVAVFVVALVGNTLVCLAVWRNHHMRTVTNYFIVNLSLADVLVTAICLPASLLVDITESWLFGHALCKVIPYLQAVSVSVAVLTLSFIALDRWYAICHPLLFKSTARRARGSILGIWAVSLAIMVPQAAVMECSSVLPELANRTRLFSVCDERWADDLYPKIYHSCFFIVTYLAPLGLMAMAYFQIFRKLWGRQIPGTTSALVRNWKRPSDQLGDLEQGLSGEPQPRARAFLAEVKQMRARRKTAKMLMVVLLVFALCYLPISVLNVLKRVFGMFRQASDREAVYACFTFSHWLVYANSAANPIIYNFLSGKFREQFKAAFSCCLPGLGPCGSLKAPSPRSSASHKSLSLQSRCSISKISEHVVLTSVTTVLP
Description: (§1) The Orexin receptor antagonistic activity of the compounds of formula (I) was determined in accordance with the following experimental method.
(§2) Intracellular Calcium Measurements
(§3) Chinese hamster ovary (CHO) cells expressing the human orexin-1 receptor and the human orexin-2 receptor, respectively, were grown in culture medium (Ham F-12 with L-Glutamine) containing 300 μg/ml G418, 100 U/ml penicillin, 100 μg/ml streptomycin and 10% inactivated foetal calf serum (FCS).
(§4) The cells were seeded at 80,000 cells/well into 96-well black clear bottom sterile plates (Costar) which had been precoated with 1% gelatine in Hanks' Balanced Salt Solution (HBSS). All reagents were from Gibco BRL.
(§5) The seeded plates were incubated overnight at 37° C. in 5% CO2.
(§6) Human orexin-A as an agonist was prepared as 1 mM stock solution in methanol:water (1:1), diluted in HBSS containing 0.1% bovine serum albumin (BSA) and 2 mM HEPES for use in the assay at a final concentration of 10 nM.
(§7) Antagonists were prepared as 10 mM stock solution in DMSO, then diluted in 96-well plates, first in DMSO, then in HBSS containing 0.1% bovine serum albumin (BSA) and 2 mM HEPES.
(§8) On the day of the assay, 100 μl of loading medium (HBSS containing 1% FCS, 2 mM HEPES, 5 mM probenecid (Sigma) and 3 μM of the fluorescent calcium indicator fluo-3 AM (1 mM stock solution in DMSO with 10% pluronic acid) (Molecular Probes) was added to each well.
(§9) The 96-well plates were incubated for 60 min at 37° C. in 5% CO2. The loading solution was then aspirated and cells were washed 3 times with 200 μl HBSS containing 2.5 mM probenecid, 0.1% BSA, 2 mM HEPES. 100 μl of that same buffer was left in each well. Within the Fluorescent Imaging Plate Reader (FLIPR, Molecular Devices), antagonists were added to the plate in a volume of 50 μl, incubated for 20 min and finally 100 μl of agonist was added. Fluorescence was measured for each well at 1 second intervals, and the height of each fluorescence peak was compared to the height of the fluorescence peak induced by 10 nM orexin-A with buffer in place of antagonist.

human orexin-2 receptor = molecular target: T2, human orexin-2 receptor (Homo sapiens, UniProt O43614); test: Intracellular calcium measurements (FLIPR), orexin receptor antagonistic activity, OX2; type: cell-based; settings: CHO cells expressing the human orexin-2 receptor, agonist 10 nM human orexin-A
T2 construct: expressed in transfected cells; host or cells: CHO cells (G418 selection)
T2 sequence (O43614 1-444): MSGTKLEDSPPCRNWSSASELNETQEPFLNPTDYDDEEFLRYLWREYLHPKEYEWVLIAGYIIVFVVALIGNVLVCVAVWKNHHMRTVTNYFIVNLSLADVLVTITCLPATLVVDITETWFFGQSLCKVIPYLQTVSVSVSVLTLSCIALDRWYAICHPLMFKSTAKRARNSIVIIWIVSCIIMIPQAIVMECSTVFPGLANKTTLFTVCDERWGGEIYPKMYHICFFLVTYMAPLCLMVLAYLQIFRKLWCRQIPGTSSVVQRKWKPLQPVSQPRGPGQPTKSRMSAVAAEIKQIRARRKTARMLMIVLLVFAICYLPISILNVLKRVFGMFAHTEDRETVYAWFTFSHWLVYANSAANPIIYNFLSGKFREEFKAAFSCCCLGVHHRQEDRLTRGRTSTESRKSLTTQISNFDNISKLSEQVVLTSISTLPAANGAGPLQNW
Description: as §1, §2, §3, §4, §5, §6, §7, §8, §9

IC50 (human orexin-1 receptor) [nM]	IC50 (human orexin-2 receptor) [nM]	Structure (SMILES)
898	5	CCN(Cc1ccccc1)C(=O)CN(c1ccc(OC)nc1)S(=O)(=O)c1ccccc1C [Example 46, N-Benzyl-N-ethyl-2-[(6-methoxy-pyridin-3-yl)-(toluene-2-sulfonyl)-amino]-acetamide]
354	4	CCN(Cc1ccccc1)C(=O)CN(c1ccccc1OC)S(=O)(=O)c1ccccc1C [Example 47, N-Benzyl-N-ethyl-2-[(2-methoxy-phenyl)-(toluene-2-sulfonyl)-amino]-acetamide]
840	5	CCN(Cc1cccc(O)c1)C(=O)CN(c1ccccc1OC)S(=O)(=O)c1ccccc1C [Example 158, N-Ethyl-N-(3-hydroxy-benzyl)-2-[(2-methoxy-phenyl)-(toluene-2-sulfonyl)-amino]-acetamide]
> 10000	4	CCN(Cc1ccccn1)C(=O)CN(c1ccc(OC)nc1)S(=O)(=O)c1ccccc1C [Example 163, N-Ethyl-2-[(6-methoxy-pyridin-3-yl)-(toluene-2-sulfonyl)-amino]-N-pyridin-2-ylmethyl-acetamide]
4270	4	CCN(Cc1ccccc1)C(=O)CN(c1ccccc1OC)S(=O)(=O)c1ncccc1C [Example 185, N-Benzyl-N-ethyl-2-[(2-methoxy-phenyl)-(3-methyl-pyridine-2-sulfonyl)-amino]-acetamide]
5370	4	CCN(Cc1ccccc1)C(=O)CN(c1ccc(OC)nc1)S(=O)(=O)c1ncccc1C [Example 207, N-Benzyl-N-ethyl-2-[(6-methoxy-pyridin-3-yl)-(3-methyl-pyridine-2-sulfonyl)-amino]-acetamide]

The remaining lines, values behind:

Structure (SMILES)	IC50 (human orexin-1 receptor) [nM]	IC50 (human orexin-2 receptor) [nM]
CCN(CCC#N)C(=O)CN(c1ccc(C)cc1)S(=O)(=O)c1ccc(C(C)(C)C)cc1 [Example 63, 2-[(4-tert-Butyl-benzenesulfonyl)-p-tolyl-amino]-N-(2-cyano-ethyl)-N-ethyl-acetamide]	> 10000	3
CCN(Cc1ccccn1)C(=O)CN(c1ccc(C)cc1)S(=O)(=O)c1ccc(C(C)(C)C)cc1 [Example 66, 2-[(4-tert-Butyl-benzenesulfonyl)-p-tolyl-amino]-N-ethyl-N-pyridin-2-ylmethyl-acetamide]	1030	4
CCN(Cc1cccc(C)n1)C(=O)CN(c1ccc(C)cc1)S(=O)(=O)c1ccc(C(C)(C)C)cc1 [Example 71, 2-[(4-tert-Butyl-benzenesulfonyl)-p-tolyl-amino]-N-ethyl-N-(6-methyl-pyridin-2-ylmethyl)-acetamide]	417	5
CCN(Cc1cccc(C)n1)C(=O)CN(c1cccc(N(C)C)c1)S(=O)(=O)c1ccc(C(C)(C)C)cc1 [Example 87, 2-[(4-tert-Butyl-benzenesulfonyl)-(3-dimethylamino-phenyl)-amino]-N-ethyl-N-(6-methyl-pyridin-2-ylmethyl)-acetamide]	56	8
CN(C)c1cccc(N(CC(=O)N(CCO)Cc2ccccn2)S(=O)(=O)c2ccc(C(C)(C)C)cc2)c1 [Example 111, 2-[(4-tert-Butyl-benzenesulfonyl)-(3-dimethylamino-phenyl)-amino]-N-(2-hydroxy-ethyl)-N-pyridin-2-ylmethyl-acetamide]	331	5
CCN(Cc1cccc(C)n1)C(=O)CN(c1ccc(OC)nc1)S(=O)(=O)c1ccccc1C [Example 160, N-Ethyl-2-[(6-methoxy-pyridin-3-yl)-(toluene-2-sulfonyl)-amino]-N-(6-methyl-pyridin-2-ylmethyl)-acetamide]	8640	2
